Data reported in article PMC10813298, “Evidence of Guanidines Potential against Leishmania (Viannia) braziliensis: Exploring In Vitro Effectiveness, Toxicities and of Innate Immunity Response Effects” (Biomolecules, 2023).

Experiments:
nitric oxide (NO) = experiment: Nitric oxide synthesis induction (Griess) in infected macrophages; assay type: cell-based, murine; conditions: supernatant of RAW 264.7 macrophages infected with L. (V.) braziliensis
Procedure: To evaluate the induction of nitric oxide (NO) synthesis, the following procedure was conducted: In 96-well plates, 100 μL of the supernatants obtained from the macrophage infection assays by L. (V.) braziliensis were placed. An equal volume of Griess® reagent (obtained from Sigma-Aldrich, St. Louis, MO, USA) was added to each well. In parallel, the same procedure was carried out using known concentrations of sodium nitrite (NaNO2, obtained from Vertec Química Fina, Duque de Caxias, RJ, Brazil) ranging from 125 to 2 μmol/L, which were prepared in RPMI medium. This was performedto generate a standard curve. The plates were then incubated at room temperature for 10 min. Subsequently, the absorbance of the samples was measured in a plate reader at a wavelength of 545 nm. The concentration of nitrite in the supernatants was determined by interpolating the absorbance values onto the standard curve.

terminal ileum = experiment: Spasmolytic effect on terminal ileum (KCl contraction); conditions: guinea pig terminal ilea, KCl-induced contraction
Procedure: (§1) Guinea pigs of either sex weighing between 250 or 380 g were utilized in this study. The animals were housed in a controlled environment in an air-conditioned room, maintaining a temperature of 22 to 24 °C and a relative humidity of 50% to 60%. A 12 h light–dark cycle was maintained.
(§2) On the day of the experiments, the animals were euthanized via cervical dislocation. The heart, aorta, pulmonary artery, and ileum were surgically removed and immersed in Krebs–Henseleit solution, with the following composition: NaCl 144.9 mM, KCl 4.73 mM, CaCl2 3.2 mM, MgSO4 1.18 mM, NaHCO3 24.9 mM, KH2PO4 1.18 mM, and glucose 10 mM, with the pH maintained at 7.2–7.4. This solution was continuously aerated with a mixture of 95% O2 and 5% CO2.
(§3) Papillary muscles were isolated from the right ventricle of the heart and meticulously cleared of Purkinje fibers to prevent spontaneous activity. To ensure adequate oxygen supply, only muscles with a diameter less than 0.87 mm were used. The right atrium was also dissected for assessment of chronotropic activity. Both the aorta and pulmonary artery were cleaned and cut into 5 mm rings, while the ileum was sectioned into pieces measuring 1 to 2 cm.
(§4) One end of the dissected tissues was securely tied with silver wire for attachment to a tissue holder, while the other end was connected to a force transducer (Transbridge™, 4-Channel Transducer Amplifier, World Precision Instruments, Sarasota, FL, USA). For contractile measurements, the terminal ileum was stimulated with 60 mM KCl, and the pulmonary artery and aorta rings were exposed to a 90 mM KCl solution. Papillary muscles were electrically stimulated using an Anapulse Stimulator Model 301-T and an Isolation Unit Model 305-1 (WPI, Hamden, CT, USA) with rectangular pulses of 3 ms duration at a frequency of 1 Hz. The amplitude of the stimulation pulse was maintained at 10% above the threshold level. To optimize contractility, a constant resting tension was applied throughout the experiment: 3.9 mN for papillary muscle, 4.9 mN for terminal ileum, 10.4 mN for the right atrium, and 19.6 mN for aorta and pulmonary artery rings.
(§5) Following a 30 min control period, different concentrations of test compounds were cumulatively added to the bath solution every 45 min until a stable effect was achieved. The responses were recorded using a chart recorder (BD 112 Dual Channel, Kipp &Zonen, PO Box 507, 2624 BC, Delft, Holland) for subsequent evaluation. Stock concentrations of the test compounds were prepared using DMSO. To account for any potential DMSO effect, control experiments were conducted with the solvent alone, and the observed effects were subtracted from the responses elicited by the test compounds.

right atrium = experiment: Chronotropic effect on isolated right atrium; set-up: species or system guinea pig; conditions: for effect on heart rate (chronotropic): isolated guinea pig heart muscle preparation, up to 100 µmol/L
Procedure: as §1, §2, §3, §4, §5

[1] = Cell toxicity, MTT-based EZ4U assay, HEK-293; set-up: species or system human; conditions: human, HEK-293 cells (embryonic kidney), HEK, 72 h
Procedure: (§6) In this study, we utilized the RAW 264.7 macrophages line (obtained from ATCC: code TIB-71™),human embryonic kidney cell line HEK-293 (obtained from ATCC: code CRL-1573™)and two human cancer cell cultures: the colon carcinoma cell line CaCo-2 and the adenocarcinomic human alveolar basal epithelial cell A549 (also obtained from ATCC: codesHTB-37™ and CCL-185™).These cell lines were cultured in Dulbecco’s modified Eagle medium (DMEM) from Gibco by Life Technologies (LifeTech Austria, Vienna, Austria). The growth medium was supplemented with 5% fetal bovine serum (FBS) from Gibco by Life Technologies and 1% penicillin-streptomycin obtained from Sigma-Aldrich (Vienna, Austria). The cells were maintained at 37 °C with 5% CO2 in a humidified incubator, and regular checks for mycoplasma contamination were carried out.
(§7) For experimental purposes, the cells were seeded into 96-well plates at a density of 2 × 10^4 cells/mL, with each well containing 100 µL of the cell suspension. The cells were allowed to adhere for 24 h. […] The stock solutions of these compounds were prepared in water with 10% (v/v) dimethyl sulfoxide (DMSO) and stored at 4 °C.
(§8) To assess cell viability after 72 h of exposure to the compounds, we employed a 3-(4,5-dimethylthiazol-2-yl)-2,5-diphenyltetrazolium bromide (MTT)-based vitality assay kit (EZ4U, Biomedica, Vienna, Austria). Briefly, we added 20 µL of the EZ4U assay solution to each well and incubated the plates in the dark for 2 h. Subsequently, we measured the absorbance using a microplate reader at 450 nm, with 620 nm as a reference to reduce unspecific background values. For reliability, all experiments were conducted three times with triplicate samples.

HEK-293 = experiment: Cell toxicity, MTT-based EZ4U assay, HEK-293; set-up: species or system human; conditions: HEK-293, 1.56–500 µmol/L
Procedure: as §6, §7, §8

[2] = Cell toxicity, MTT-based EZ4U assay, A549; set-up: species or system human; conditions: human, A549 cells (alveolar basal epithelial adenocarcinoma), 72 h; for viability at 72 h, 2.34 µmol/L: A549, 2.34 µmol/L; for viability at 72 h, 4.6875 µmol/L: A549, 4.6875 µmol/L; for viability at 72 h, 9.375 µmol/L: A549, 9.375 µmol/L; for viability at 72 h, 18.75 µmol/L: A549, 18.75 µmol/L; for viability at 72 h, 37.5 µmol/L: A549, 37.5 µmol/L; for viability at 72 h, 75 µmol/L: A549, 75 µmol/L; for viability at 72 h, 150 µmol/L: A549, 150 µmol/L; for viability at 72 h, 300 µmol/L: A549, 300 µmol/L; for viability at 72 h, 600 µmol/L: A549, 600 µmol/L
Procedure: as §6, §7, §8

A549 = experiment: Cell toxicity, MTT-based EZ4U assay, A549; set-up: species or system human; conditions: A549, 1.56–500 µmol/L
Procedure: as §6, §7, §8

SMILES | NO level (nitric oxide (NO)) | spasmolytic effect / contraction force in the terminal ileum (terminal ileum) | effect on heart rate (chronotropic) (right atrium) | viability at 72 h, 2.34 µmol/L [1] [%] | viability at 72 h, 4.6875 µmol/L [1] [%] | viability at 72 h, 9.375 µmol/L [1] [%] | viability at 72 h, 18.75 µmol/L [1] [%] | viability at 72 h, 37.5 µmol/L [1] [%] | viability at 72 h, 75 µmol/L [1] [%] | viability at 72 h, 150 µmol/L [1] [%] | viability at 72 h, 300 µmol/L [1] [%] | viability at 72 h, 600 µmol/L [1] [%] | toxic effects on cell viability (HEK-293) | viability at 72 h, 2.34 µmol/L [2] [%] | viability at 72 h, 4.6875 µmol/L [2] [%] | viability at 72 h, 9.375 µmol/L [2] [%] | viability at 72 h, 18.75 µmol/L [2] [%] | viability at 72 h, 37.5 µmol/L [2] [%] | viability at 72 h, 75 µmol/L [2] [%] | viability at 72 h, 150 µmol/L [2] [%] | also measured
O=C(/N=C(/NCc1ccccc1)Nc1ccc([N+](=O)[O-])cc1)c1ccccc1 [LQOF-G1, (Z)-N-benzoyl-N-benzyl-N-(4-nitrophenyl)guanidine] | increased | decrease in contraction force | slight decrease in heart rate | 99 ± 10 | 104 ± 11 | 125 ± 8.1 | 125 ± 9.4 | 100 ± 11 | 115 ± 7 | 111 ± 5 | 117 ± 6 | 115 ± 10 | No toxic effects | 114 ± 7 | 97 ± 10.7 | 103 ± 8.8 | 103 ± 5.7 | 101 ± 8.3 | 92 ± 9.3 | 100 ± 6.5 | viability at 72 h, 300 µmol/L [2]: 110 ± 7.2%; viability at 72 h, 600 µmol/L [2]: 90 ± 8.3%; toxic effects on cell viability (A549): No toxic effects
O=C(/N=C(/NCc1ccccc1)Nc1ccc(Br)cc1)c1ccccc1 [LQOF-G2, (Z)-N-benzoyl-N-benzyl-N-(4-bromophenyl)guanidine] | increased | decrease in contraction force | – | 104 ± 2.9 | 109 ± 9.6 | 103 ± 13.5 | 108 ± 8.6 | 96 ± 2.9 | 99 ± 8.5 | 145 ± 3.3 | 123 ± 7.1 | 133 ± 8.4 | No toxic effects | 106 ± 6.3 | 109 ± 5.5 | 102 ± 10.5 | 89 ± 5.7 | 99 ± 5.2 | 96 ± 7.7 | 109 ± 4.3 | EC50 (right atrium; Cavia porcellus, isolated guinea pig right atrium, 3 to 100 µmol/L, read-out: EC50 reduction of heart rate activity): 69 µM; viability at 72 h, 300 µmol/L [2]: 111 ± 9.3%; viability at 72 h, 600 µmol/L [2]: 110 ± 7.9%; toxic effects on cell viability (A549): No toxic effects
CC(C)(C)c1ccc(N/C(=N\C(=O)c2ccccc2)NCc2ccccc2)cc1 [LQOF-G6, (Z)-N-benzoyl-N-benzyl-N-(4-tert-butylphenyl)guanidine] | increased | – | – | – | – | – | – | – | – | – | – | – | – | – | – | – | – | – | – | – | –
O=C(/N=C(/NCc1ccccc1)Nc1ccc(I)cc1)c1ccccc1 [LQOF-G7, (Z)-N-benzoyl-N-benzyl-N-(4-iodophenyl)guanidine] | – | decrease in contraction force | slight decrease in heart rate | – | – | – | – | – | – | – | – | – | – | – | – | – | – | – | – | – | –
O=C(/N=C(/NCc1ccc(Cl)cc1Cl)Nc1ccc(Br)cc1)c1ccccc1 [LQOF-G32, (Z)-N-benzoyl-N-(2,4-di-chlorobenzyl)-N-(4-bromophenyl)guanidine] | – | decrease in contraction force | slight decrease in heart rate | 93 ± 5.3 | 95 ± 12.7 | 89 ± 7.9 | 94 ± 8.9 | 91 ± 6.9 | 91 ± 13.9 | 94 ± 12.7 | 118 ± 13.9 | 185 ± 10.1 | No toxic effects | 109 ± 9.7 | 157 ± 10.6 | 165 ± 8.1 | 121 ± 3.6 | 118 ± 9.9 | 115 ± 17.5 | 111 ± 15.5 | viability at 72 h, 300 µmol/L [2]: 106 ± 13.8%; viability at 72 h, 600 µmol/L [2]: 95 ± 10.4%; toxic effects on cell viability (A549): No toxic effects
